Series [1] concerns man and experimental animals. The conditions noted are these: cited from earlier work.
Series [2] relates to acetaminophen hepatotoxicity. The conditions noted are these: cited from earlier work; for effect on acetaminophen hepatotoxicity: J. Kelleher et al.
A further series concerns vitamin E deficient rats. The conditions noted are these: cited from earlier work.
The next series relates to humans. The conditions noted are these: in vivo; cited from earlier work.
The test system of series [3] is acetaminophen hepatotoxicity. As to the kind of experiment: Effect of BHT and BHA on hepatotoxicity of acetaminophen (general finding). The conditions noted are these: in vivo. An excerpt:
Because the general population consumes large amounts of these chemicals daily, because of their presence in a wide variety of food products, the likelihood of an increased incidence of hepatoxicity in persons taking repeated dosages of acetaminophen is self-evident.

Series [4] has as its system hamsters. As to the kind of experiment: Enhancement of acetaminophen toxicity by BHT and protection by methionine sulfoxide in hamsters. It is filed as in vivo, hamster. The procedure: (§1) Hamsters weighing about 70 gm. each were divided into five groups of animals. An aqueous solution (ca. 0.7 ml) of […]. (600 mg/kg) of acetaminophen and an amount of methionine sulfoxide listed in the table below, was administered intraperitoneally to each hamster. All deaths occurred within 48 hours. The survivors all were alive one week later when examined again.
(§2) Following the above procedure, hamsters were given i.p. either 300 mg/kg of acetaminophen or 600 mg/kg BHT.

Experiment in series [5]: as above
The conditions noted are these: hamster, in vivo, ip; i.p. mixture of 300 mg/kg acetaminophen and 600 mg/kg BHT; within 24 hours; read-out: deaths. It is filed as in vivo, hamster. The procedure: as §1, §2

The test system of series [6] is hamsters. As to the kind of experiment: Enhancement of acetaminophen toxicity by BHA and protection by methionine sulfoxide in hamsters. It is filed as in vivo, hamster. The procedure:
Hamsters weighing about 70 gm. each were divided into five groups of animals. […] All deaths occurred within 48 hours. The survivors all were alive one week later when examined again.
Methionine sulfoxide protects the hamsters against the enhanced acetaminophen toxicity up to dosages of about 200 mg/kg of BHA.

In series [7] the test system is hepatotoxicity after an overdose of acetaminophen. The conditions noted are these: administered within 16 hours after an overdose of acetaminophen; clinical study; cited from earlier work.
The test system of series [8] is mice. The conditions noted are these: administered up to one hour after acute toxic amounts of acetaminophen; cited from earlier work.
Series [9] deals with mice. The conditions noted are these: cited from earlier work.
Series [10] deals with hamsters. As to the kind of experiment: animal or person. It is filed as in vivo, hamster. The conditions noted are these: for % Deaths: deaths within 48 hours; for hamsters protected from the otherwise lethal dosage of acetaminophen: acetaminophen 600 mg/kg i.p. The procedure: as §1
In the next series the test system is inbred mice. The conditions noted are these: suggested for humans from studies with inbred mice; cited from earlier work.
The next series deals with man. The conditions noted are these: vitamin C with acetaminophen, cited from earlier work.
[11] abbreviates: i.p. mixture of 300 mg/kg acetaminophen and 100 mg/kg BHA, all hamsters.
The mark [12] stands for this setting: acetaminophen 300 mg/kg i.p. alone.

Results on 15 compounds are retold here after US4314989A, “Methionine sulfoxide amflioration of acetaminophen toxicity” (priority 1980, dated 1982).

In the case of dimethylmercaptol, the “protection against the hepatotoxicity of acetaminophen” value (from here on “protection against the hepatotoxicity”) in series [1] is given as “varying degrees of protection”.
As for `NCCS` [cysteamine], the “protection against the hepatotoxicity” value in [1] is listed as “varying degrees of protection”.
`Cc1c(C)c2c(c(C)c1O)CCC(C)(CCCC(C)CCCC(C)CCCC(C)C)O2` (stereo not drawn) [vitamin E, α-tocopherol]: in [2], the “effect on acetaminophen hepatotoxicity” value was “reduce hepatotoxicity”. Also, in the series with vitamin E deficient rats, the “protection against the hepatotoxic effects of acetaminophen” value is “provides such protection”. In addition, the “protection against the hepatotoxicity” value in [1] is listed as “varying degrees of protection”.
For the compound `CCO` [alcohol], the “potentiation of acetaminophen hepatotoxicity” value in the series on humans was “markedly potentiate the hepatotoxicity”.
Turning to `CSCC[C@H](N)C(=O)O` [methionine], the “protection against the hepatotoxicity” value in series [1] is listed as “varying degrees of protection”.
In the case of `[Se]` [selenium], in series [1], the “protection against the hepatotoxicity” value is recorded as “varying degrees of protection”.
`Cc1cc(C(C)(C)C)c(O)c(C(C)(C)C)c1` [BHT, butylated hydroxytoluene]: the “effect on hepatotoxicity of acetaminophen” value in [3] is listed as “profoundly enhance its hepatotoxicity”. In the series on hamsters [4] (BHT 600 mg/kg i.p. alone), the deaths entry is “No deaths occurred”. The “enhancement of acetaminophen toxicity” value with hamsters [4] (i.p. mixture of 300 mg/kg acetaminophen and 600 mg/kg BHT) is recorded as “profound enchancement of acetaminophen toxicity”. For the same compound, the mortality at 24 h in series [5] worked out at 100%.
Take `COc1ccc(O)c(C(C)(C)C)c1` [BHA, butylated hydroxyanisole]: in series [3], the “effect on hepatotoxicity of acetaminophen” value is listed as “profoundly enhance its hepatotoxicity”. For the same compound, in the series on hamsters [6] (BHA 100-300 mg/kg i.p. alone), the deaths result is “no deaths occurred”. Further, in the series on hamsters [6] (higher amounts of BHA (than 100 mg/kg) with acetaminophen), the incidence of deaths result is given as “higher incidence of deaths”. The survival result in the series on hamsters [6] (i.p. mixture of 300 mg/kg acetaminophen and 100 mg/kg BHA) is on record as “most survive”. Also, in the series on hamsters [6] (setting [11]), the coma result is reported as “go into a coma” and the time to coma was 15 to 20 min.
In the case of `CC(=O)N[C@@H](CS)C(=O)O` [acetylcysteine], in series [7], the prevention of hepatotoxicity result was “effective in preventing hepatotoxicity”.
Consider `C[S+](C)[O-]` [Dimethyl sulfoxide], for which the “protection against the hepatotoxic effects of acetaminophen” value with mice [8] is reported as “protect mice against the hepatotoxic effects of acetaminophen”. In addition, the “protection against CCl4 hepatotoxicity” value in the series with mice [9] is reported as “inability of DMSO to protect mice”.
For `CC(=O)Nc1ccc(O)cc1` [acetaminophen], the hepatic necrosis entry in the series with humans is “can cause massive hepatic necrosis”. In the series on hamsters [10] (acetaminophen 600 mg/kg i.p. alone (methionine sulfoxide 0), 17 animals), the “% Deaths” value worked out at 94%. Further, the deaths entry is recorded as “No deaths occurred” in the series on hamsters [4] (setting [12]) and “no deaths occurred” with hamsters [6] (setting [12]). The cataracts result with inbred mice is listed as “can cause cataracts in humans”.
For `O=C1O[C@H]([C@@H](O)CO)C(O)=C1O` [vitamin C, ascorbic acid], in [2] (Raghuram et al.), the “protection against the hepatotoxic effects of acetaminophen” value was “may provide such protection”. Further, the “apparent half-life of drug (acetaminophen)” value with man (by rate of secretion in the urine) is “did not affect the apparent half-life”. Further, the “excretion rate of acetaminophen sulfate” value in the series with man was “rapid and pronounced decrease”.
On to `N[C@@H](CS)C(=O)O` [cysteine], for which the “protection against the hepatotoxicity” value in series [1] was “varying degrees of protection”.
For `CCCOC(=O)c1cc(O)c(O)c(O)c1` [propyl gallate], the “effect on acetaminophen hepatotoxicity” value in series [2] was “reduce hepatotoxicity”.
Broadly, the ED50 is the midpoint of the dose-response relation. A lower ED50 goes with greater potency. In the series with hamsters [10] (Mesocricetus auratus, ip), `C[S+]([O-])CC[C@H](N)C(=O)O` (stereo partly drawn) [methionine sulfoxide] registered an ED50 of approximately 65 mg/kg. The “% Deaths” value with hamsters [10] (methionine sulfoxide 50 mg/kg i.p. with acetaminophen 600 mg/kg, 15 animals) worked out at 60%; in the series with hamsters [10] (methionine sulfoxide 100 mg/kg i.p. with acetaminophen 600 mg/kg, 17 animals), 23.5%; in the series on hamsters [10] (methionine sulfoxide 200 mg/kg i.p. with acetaminophen 600 mg/kg, 17 animals), 0%; with hamsters [10] (methionine sulfoxide 400 mg/kg i.p. with acetaminophen 600 mg/kg, 8 animals), 0%. For the same compound, the “hamsters protected from the otherwise lethal dosage of acetaminophen” value is listed as “over 75%” in the series with hamsters [10] (methionine sulfoxide 100 mg/kg), “protected all of the hamsters” with hamsters [10] (methionine sulfoxide 200 mg/kg) and “protected all of the hamsters” with hamsters [10] (methionine sulfoxide 400 mg/kg). In addition, in the series with hamsters [4] (methionine sulfoxide 150 mg/kg concurrently with 300 mg/kg acetaminophen and 600 mg/kg BHT), the deaths entry is on record as “no deaths occurred”. The “coma produced by the combination of acetaminophen and BHA” value with hamsters [6] (methionine sulfoxide treated, survivors) was “manifested even in the survivors”. Besides, in the series on hamsters [6] (methionine sulfoxide with acetaminophen and BHA, value is BHA dosage (up to about)), the “dosage of BHA up to which hamsters are protected against the enhanced acetaminophen toxicity” value is given as “about 200 mg/kg”.
